Reference: the kinase profiling compilation of Christmann-Franck et al. (2016)

Columns and labels:
Test in all cases: radiometric filter-binding kinase assay
AURKB (human) = AURKB (human) (UniProt Q96GD4)
BRSK2 (human) = BRSK2 (human) (UniProt Q8IWQ3)
CAMKK2 (human) = CAMKK2 (human) (UniProt Q96RR4)
CHEK1 (human) = CHEK1 (human) (UniProt O14757)
CLK2 (human) = CLK2 (human) (UniProt P49760)
CSNK2A1 (human) = CSNK2A1 (human) (UniProt P68400)
CaMK1 (human) = CaMK1 (human) (UniProt Q14012)
DAPK1 (human) = DAPK1 (human) (UniProt P53355)
DYRK1A (human) = DYRK1A (human) (UniProt Q13627)
DYRK3 (human) = DYRK3 (human) (UniProt O43781)
EPHB2 (human) = EPHB2 (human) (UniProt P29323)
Sequence of EPHB2 (human) (P29323 whole entry, looked up): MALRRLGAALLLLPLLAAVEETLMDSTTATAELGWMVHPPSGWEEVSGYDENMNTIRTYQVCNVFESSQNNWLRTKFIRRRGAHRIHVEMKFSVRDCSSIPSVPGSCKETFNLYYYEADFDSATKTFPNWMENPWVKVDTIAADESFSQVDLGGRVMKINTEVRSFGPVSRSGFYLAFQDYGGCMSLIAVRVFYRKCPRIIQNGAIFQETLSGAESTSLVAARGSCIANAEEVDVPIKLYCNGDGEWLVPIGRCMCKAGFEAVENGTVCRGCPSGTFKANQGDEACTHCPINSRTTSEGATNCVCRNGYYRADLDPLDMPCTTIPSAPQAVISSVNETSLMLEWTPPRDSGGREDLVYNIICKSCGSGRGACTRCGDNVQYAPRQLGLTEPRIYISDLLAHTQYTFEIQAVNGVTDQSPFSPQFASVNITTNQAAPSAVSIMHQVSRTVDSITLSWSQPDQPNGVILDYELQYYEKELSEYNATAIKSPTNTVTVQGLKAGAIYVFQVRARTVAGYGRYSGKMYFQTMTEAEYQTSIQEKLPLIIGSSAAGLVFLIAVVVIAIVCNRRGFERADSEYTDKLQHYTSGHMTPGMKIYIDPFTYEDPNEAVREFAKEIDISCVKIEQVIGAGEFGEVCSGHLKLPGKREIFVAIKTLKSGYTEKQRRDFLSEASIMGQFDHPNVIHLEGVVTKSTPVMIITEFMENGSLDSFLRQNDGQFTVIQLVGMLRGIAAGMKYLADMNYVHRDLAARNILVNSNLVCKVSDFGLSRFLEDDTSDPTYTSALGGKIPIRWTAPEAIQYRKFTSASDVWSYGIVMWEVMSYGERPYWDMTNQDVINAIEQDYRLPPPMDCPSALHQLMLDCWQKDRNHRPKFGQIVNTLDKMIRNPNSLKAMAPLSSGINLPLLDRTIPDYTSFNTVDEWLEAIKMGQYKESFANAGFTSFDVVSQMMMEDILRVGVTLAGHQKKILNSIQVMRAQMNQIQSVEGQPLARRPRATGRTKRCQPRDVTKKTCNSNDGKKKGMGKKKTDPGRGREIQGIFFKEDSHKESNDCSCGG

FGFR1 (human) = FGFR1 (human) (UniProt P11362)
GCK (human) = GCK (human) (UniProt Q12851)
Sequence of GCK (human) (Q12851 whole entry, looked up): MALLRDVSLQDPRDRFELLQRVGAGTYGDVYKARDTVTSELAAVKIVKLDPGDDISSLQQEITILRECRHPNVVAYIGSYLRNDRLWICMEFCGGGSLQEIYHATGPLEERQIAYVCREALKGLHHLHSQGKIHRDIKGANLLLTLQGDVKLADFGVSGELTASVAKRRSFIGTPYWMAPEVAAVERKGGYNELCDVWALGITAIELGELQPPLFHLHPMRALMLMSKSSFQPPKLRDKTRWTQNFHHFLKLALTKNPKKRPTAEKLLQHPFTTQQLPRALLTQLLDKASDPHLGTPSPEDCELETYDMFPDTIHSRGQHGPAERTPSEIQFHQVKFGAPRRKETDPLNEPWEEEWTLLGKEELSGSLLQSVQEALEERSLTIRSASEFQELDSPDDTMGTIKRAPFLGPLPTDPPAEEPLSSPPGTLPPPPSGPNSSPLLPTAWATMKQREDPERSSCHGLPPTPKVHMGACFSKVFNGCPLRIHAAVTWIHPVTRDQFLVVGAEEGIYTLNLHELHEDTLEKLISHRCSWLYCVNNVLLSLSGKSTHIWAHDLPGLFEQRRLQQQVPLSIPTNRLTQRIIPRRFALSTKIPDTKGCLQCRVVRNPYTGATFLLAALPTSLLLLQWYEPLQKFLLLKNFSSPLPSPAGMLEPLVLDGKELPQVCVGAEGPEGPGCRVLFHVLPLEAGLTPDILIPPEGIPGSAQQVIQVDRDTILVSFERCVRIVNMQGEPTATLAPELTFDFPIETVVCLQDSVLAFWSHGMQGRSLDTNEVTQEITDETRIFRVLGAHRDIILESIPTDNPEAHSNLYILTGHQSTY

HIPK1 (human) = HIPK1 (human) (UniProt Q86Z02)
HIPK2 (human) = HIPK2 (human) (UniProt Q9H2X6)
Sequence of HIPK2 (human) (Q9H2X6 whole entry, looked up): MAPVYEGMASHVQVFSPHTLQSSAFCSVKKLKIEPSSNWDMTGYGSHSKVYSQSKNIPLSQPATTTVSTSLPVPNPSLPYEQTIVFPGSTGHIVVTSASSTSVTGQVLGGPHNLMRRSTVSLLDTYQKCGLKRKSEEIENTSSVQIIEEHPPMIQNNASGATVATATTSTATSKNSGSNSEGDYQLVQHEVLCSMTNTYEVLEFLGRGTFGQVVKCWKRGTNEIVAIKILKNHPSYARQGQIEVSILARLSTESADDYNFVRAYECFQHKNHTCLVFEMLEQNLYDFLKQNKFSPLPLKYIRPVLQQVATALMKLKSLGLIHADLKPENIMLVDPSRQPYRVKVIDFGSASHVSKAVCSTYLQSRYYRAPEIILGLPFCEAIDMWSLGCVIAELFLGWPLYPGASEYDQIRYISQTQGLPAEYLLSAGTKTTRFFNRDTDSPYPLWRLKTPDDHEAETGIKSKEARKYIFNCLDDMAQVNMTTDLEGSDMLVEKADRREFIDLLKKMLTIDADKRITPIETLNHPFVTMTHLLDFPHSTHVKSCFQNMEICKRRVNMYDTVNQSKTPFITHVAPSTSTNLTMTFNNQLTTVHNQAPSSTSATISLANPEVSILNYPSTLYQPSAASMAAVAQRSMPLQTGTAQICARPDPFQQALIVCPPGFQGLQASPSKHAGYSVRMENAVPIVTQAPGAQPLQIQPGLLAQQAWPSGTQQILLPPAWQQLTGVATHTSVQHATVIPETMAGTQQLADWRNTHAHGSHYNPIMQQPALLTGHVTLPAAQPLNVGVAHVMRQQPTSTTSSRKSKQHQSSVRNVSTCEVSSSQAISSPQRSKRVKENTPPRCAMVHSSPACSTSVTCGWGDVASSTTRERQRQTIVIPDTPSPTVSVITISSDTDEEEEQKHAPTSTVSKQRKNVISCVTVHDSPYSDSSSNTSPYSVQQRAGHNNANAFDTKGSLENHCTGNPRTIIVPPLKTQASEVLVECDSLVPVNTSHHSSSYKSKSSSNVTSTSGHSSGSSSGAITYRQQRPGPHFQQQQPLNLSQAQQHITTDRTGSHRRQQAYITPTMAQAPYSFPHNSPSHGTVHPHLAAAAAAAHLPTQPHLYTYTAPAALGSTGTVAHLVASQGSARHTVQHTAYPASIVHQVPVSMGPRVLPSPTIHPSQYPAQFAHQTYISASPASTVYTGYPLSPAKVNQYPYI

IGF1R (human) = IGF1R (human) (UniProt P08069)
JAK2 JH1 JH2 (human) = JAK2 JH1 JH2 (human) (UniProt O60674)
Sequence of JAK2 JH1 JH2 (human) (O60674 whole entry, looked up): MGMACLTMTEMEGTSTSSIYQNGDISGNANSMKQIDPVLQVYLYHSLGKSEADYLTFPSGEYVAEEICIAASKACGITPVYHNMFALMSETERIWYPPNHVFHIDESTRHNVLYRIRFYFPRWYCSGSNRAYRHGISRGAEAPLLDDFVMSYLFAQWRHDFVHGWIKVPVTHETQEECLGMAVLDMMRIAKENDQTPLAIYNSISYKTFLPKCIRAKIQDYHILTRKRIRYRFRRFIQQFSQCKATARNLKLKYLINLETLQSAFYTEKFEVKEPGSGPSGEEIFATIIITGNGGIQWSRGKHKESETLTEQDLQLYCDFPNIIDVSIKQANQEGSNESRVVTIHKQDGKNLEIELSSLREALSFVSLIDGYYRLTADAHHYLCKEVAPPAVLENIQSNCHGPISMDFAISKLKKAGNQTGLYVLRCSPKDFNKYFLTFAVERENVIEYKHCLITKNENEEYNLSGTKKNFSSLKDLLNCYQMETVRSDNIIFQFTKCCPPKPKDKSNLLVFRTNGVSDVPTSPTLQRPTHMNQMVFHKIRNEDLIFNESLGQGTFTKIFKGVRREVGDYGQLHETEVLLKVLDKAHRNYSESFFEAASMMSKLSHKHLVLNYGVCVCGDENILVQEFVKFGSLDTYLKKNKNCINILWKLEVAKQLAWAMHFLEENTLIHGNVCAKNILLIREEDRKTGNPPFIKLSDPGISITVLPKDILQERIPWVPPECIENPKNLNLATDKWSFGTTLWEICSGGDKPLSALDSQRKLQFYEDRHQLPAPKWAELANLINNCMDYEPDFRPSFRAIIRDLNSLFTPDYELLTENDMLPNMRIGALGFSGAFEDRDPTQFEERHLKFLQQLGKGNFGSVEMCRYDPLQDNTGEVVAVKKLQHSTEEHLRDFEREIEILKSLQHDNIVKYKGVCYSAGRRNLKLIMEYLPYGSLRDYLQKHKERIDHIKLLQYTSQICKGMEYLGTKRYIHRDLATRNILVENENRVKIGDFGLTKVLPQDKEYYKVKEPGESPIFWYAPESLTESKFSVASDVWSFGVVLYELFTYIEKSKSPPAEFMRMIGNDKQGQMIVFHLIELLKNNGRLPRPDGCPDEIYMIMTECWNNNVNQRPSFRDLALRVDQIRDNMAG

LCK (mouse) = details: accession and sequence are those of the human protein

Sequence of CSNK2A1 (human) (P68400 whole entry, looked up): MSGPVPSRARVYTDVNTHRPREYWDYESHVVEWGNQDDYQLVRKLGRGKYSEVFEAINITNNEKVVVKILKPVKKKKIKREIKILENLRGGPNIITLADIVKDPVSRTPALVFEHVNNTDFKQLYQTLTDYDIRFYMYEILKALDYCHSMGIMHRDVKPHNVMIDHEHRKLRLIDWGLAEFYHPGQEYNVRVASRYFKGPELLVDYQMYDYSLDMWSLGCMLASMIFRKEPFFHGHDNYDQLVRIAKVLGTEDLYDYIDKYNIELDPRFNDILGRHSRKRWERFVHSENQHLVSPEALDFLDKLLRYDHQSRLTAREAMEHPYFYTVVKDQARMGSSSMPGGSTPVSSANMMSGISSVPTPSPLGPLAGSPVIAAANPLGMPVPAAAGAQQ
Sequence of CLK2 (human) (P49760 whole entry, looked up): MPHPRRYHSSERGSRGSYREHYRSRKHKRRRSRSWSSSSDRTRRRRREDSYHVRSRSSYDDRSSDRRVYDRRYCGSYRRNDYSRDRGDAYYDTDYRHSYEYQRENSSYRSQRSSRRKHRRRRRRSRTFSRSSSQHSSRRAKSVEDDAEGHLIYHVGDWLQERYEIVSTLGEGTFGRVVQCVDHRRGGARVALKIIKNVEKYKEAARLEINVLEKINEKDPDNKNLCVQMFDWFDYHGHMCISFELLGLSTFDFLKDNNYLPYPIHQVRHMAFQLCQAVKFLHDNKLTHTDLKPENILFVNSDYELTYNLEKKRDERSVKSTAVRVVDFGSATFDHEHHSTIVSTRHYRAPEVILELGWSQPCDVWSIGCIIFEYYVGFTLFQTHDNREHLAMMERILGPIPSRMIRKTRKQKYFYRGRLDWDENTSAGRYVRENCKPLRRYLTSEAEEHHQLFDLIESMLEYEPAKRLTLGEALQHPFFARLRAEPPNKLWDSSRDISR

c1ccc2c(-c3cnn4cc(-c5ccc(N6CCNCC6)cc5)cnc34)ccnc2c1
residual activity (AURKB (human); compound 0.1 µM): 95% | residual activity (AURKB (human); compound 1.0 µM): 76% | residual activity (AURKB (human); compound 10.0 µM): 47% | residual activity (BRSK2 (human); compound 0.1 µM): 88% | residual activity (BRSK2 (human); compound 1.0 µM): 68% | residual activity (BRSK2 (human); compound 10.0 µM): 20% | residual activity (CAMKK2 (human); compound 0.1 µM): 43% | residual activity (CAMKK2 (human); compound 1.0 µM): 13% | residual activity (CAMKK2 (human); compound 10.0 µM): 8% | residual activity (CHEK1 (human); compound 0.1 µM): 101% | residual activity (CHEK1 (human); compound 1.0 µM): 109% | residual activity (CHEK1 (human); compound 10.0 µM): 96% | residual activity (CLK2 (human); compound 0.1 µM): 67% | residual activity (CLK2 (human); compound 1.0 µM): 21% | residual activity (CLK2 (human); compound 10.0 µM): 5% | residual activity (CSNK2A1 (human); compound 0.1 µM): 90% | residual activity (CSNK2A1 (human); compound 1.0 µM): 89% | residual activity (CSNK2A1 (human); compound 10.0 µM): 81% | residual activity (CaMK1 (human); compound 0.1 µM): 86% | residual activity (CaMK1 (human); compound 1.0 µM): 85% | residual activity (CaMK1 (human); compound 10.0 µM): 45% | residual activity (DAPK1 (human); compound 0.1 µM): 89% | residual activity (DAPK1 (human); compound 1.0 µM): 91% | residual activity (DAPK1 (human); compound 10.0 µM): 72% | residual activity (DYRK1A (human); compound 0.1 µM): 75% | residual activity (DYRK1A (human); compound 1.0 µM): 40% | residual activity (DYRK1A (human); compound 10.0 µM): 9% | residual activity (DYRK3 (human); compound 0.1 µM): 86% | residual activity (DYRK3 (human); compound 1.0 µM): 89% | residual activity (EPHB2 (human); compound 0.1 µM): 108% | residual activity (EPHB2 (human); compound 1.0 µM): 80% | residual activity (EPHB2 (human); compound 10.0 µM): 37% | residual activity (FGFR1 (human); compound 0.1 µM): 69% | residual activity (FGFR1 (human); compound 1.0 µM): 20% | residual activity (FGFR1 (human); compound 10.0 µM): 8% | residual activity (GCK (human); compound 0.1 µM): 37% | residual activity (GCK (human); compound 1.0 µM): 11% | residual activity (GCK (human); compound 10.0 µM): 3% | residual activity (HIPK1 (human); compound 0.1 µM): 97% | residual activity (HIPK1 (human); compound 1.0 µM): 99% | residual activity (HIPK1 (human); compound 10.0 µM): 85% | residual activity (HIPK2 (human); compound 0.1 µM): 93% | residual activity (HIPK2 (human); compound 1.0 µM): 91% | residual activity (HIPK2 (human); compound 10.0 µM): 56% | residual activity (IGF1R (human); compound 0.1 µM): 112% | residual activity (IGF1R (human); compound 1.0 µM): 99% | residual activity (IGF1R (human); compound 10.0 µM): 89% | residual activity (JAK2 JH1 JH2 (human); compound 0.1 µM): 100% | residual activity (JAK2 JH1 JH2 (human); compound 1.0 µM): 104% | residual activity (JAK2 JH1 JH2 (human); compound 10.0 µM): 79% | residual activity (LCK (mouse); compound 0.1 µM): 81% | residual activity (LCK (mouse); compound 1.0 µM): 40%
